Results published in patent publication US9253985B2, “Herbicidal composition for tolerant or resistant cereal crops” (priority 2010, dated 2016).
Like-named read-outs stand apart in the source and are kept apart here.

How the values were obtained:
Assay type in all cases: in vivo
Setaria viridis = assay: Greenhouse trial: herbicidal efficacy, Setaria viridis; settings: post-emergence 2-4-leaf, 14 days after application
Description: (§1) The trials were carried out under greenhouse conditions (test pots, diameter 8 cm, spray application using 300 l of water/hectare, 2 repetitions, 6 to 8 plants per pot).
(§2) At the time of application, the harmful plants were at the 2-4-leaf growth stage. The application rates of the herbicidally active compounds used on their own or in combinations are listed in the results tables.
(§3) Scoring was by visual comparison of the treated with the untreated controls (0-100% scale, 14 days after the application. The results (means for all plants per pot and means of two repetitions per pot and treatment) are listed in Tables 4 to 8 below.
(§4) 4.2 Abbreviations used in Tables 4 to 6application rate g/ai=application rate in grams of active compound per hectare • ai=active ingredient (of an active compound content of 100%) • GA=glufosinate-ammonium • wheat tolerant • to GA=GA-tolerant wheat (GMO) • E^C=expected value according to Colby, (E^C=A+B−A×B/100)= • =for ternary combinations: (A+B)+C−(A+B)×C/100 • E^A=expected value according to the addition method (E^A=A+B) • Δ=difference (%) between observed value —%—vs. expected value (%) (observed value minus expected value) • examination: observed values for (A), (B) and (A)+(B) in % • scoring: observed value (%) greater>than E^C/E^A:->synergism (+Δ) • observed value (%) equal to =E^C/E^A->additive effect (+−0Δ) • observed value (%) smaller<than E^A/E^C->antagonism (−Δ)

wheat (GA-tolerant) = tested on: wheat (GA-tolerant)
Description: as §1
(§5) At the time of application, the harmful plants were at the 2-4-leaf growth stage.

Matricaria chamomilla = assay: Greenhouse trial: herbicidal efficacy, Matricaria chamomilla; settings: post-emergence 2-4-leaf, 14 days after application, g of ai/ha: A1.1 100, B1.1 5, C5 1.25, C24 12.5, C9 7.5, C32 62.5, C37 5, C58 5, C60 10, C61 25, C66 0.375, C71 0.5, C74 0.375, C42 125, mixtures at same rates
Description: as §1, §2, §3, §4

Viola arvensis = assay: Greenhouse trial: herbicidal efficacy, Viola arvensis; settings: post-emergence 2-4-leaf, 14 days after application, g of ai/ha: A1.1 100, B1.1 5, C7 100, C25 1.25, C52 2.5, C43 100, C57 5, mixtures at same rates
Description: as §1, §5

Lolium multiflorum = assay: Greenhouse trial: herbicidal efficacy, Lolium multiflorum; settings: post-emergence 2-4-leaf, 14 days after application, g of ai/ha: A1.1 100, B1.1 5, C62 1.25, C4 60, mixtures at same rates
Description: as §1, §2, §3, §4

[1] = tested on: Brassica napus (volunteer weed); assay: Greenhouse trial: herbicidal efficacy, Brassica napus; settings: post-emergence 2-4-leaf, 14 days after application, g of ai/ha: A1.1 100, B1.1 5, C12 12.5, C18 50, mixtures at same rates
Description: as §1, §2, §3, §4

[2] = g of ai/ha: A1.1 100, line r12 5, C28 50, C40 1, C43 100, C13 50, mixtures (100 + 5) + partner rate
[3] = Table 5, greenhouse, post-emergence, 14 days after application, g of ai/ha: A1.1 100, B1.1 5, C7 100, C25 1.25, C52 2.5, C43 100, C57 5, mixtures at same rates
[4] = Table 4, greenhouse, post-emergence, 14 days after application, g of ai/ha: A1.1 100, B1.1 5, C5 1.25, C24 12.5, C9 7.5, C32 62.5, C37 5, C58 5, C60 10, C61 25, C66 0.375, C71 0.5, C74 0.375, C42 125, mixtures at same rates
[5] = Table 6, greenhouse, post-emergence, 14 days after application, g of ai/ha: A1.1 100, B1.1 5, C12 12.5, C18 50, mixtures at same rates
[6] = Table 7, greenhouse, post-emergence, 14 days after application, g of ai/ha: A1.1 100, line r12 5, C28 50, C40 1, C43 100, C13 50, mixtures (100 + 5) + partner rate
[7] = Table 8, greenhouse, post-emergence, 14 days after application, g of ai/ha: A1.1 100, B1.1 5, C62 1.25, C4 60, mixtures at same rates

SMILES: CC(C)N(C(=O)COc1nnc(C(F)(F)F)s1)c1ccc(F)cc1 [(C28) flufenacet, flufenacet (thiafluamide)]
- Herbicidal efficacy (%) Setaria viridis (Setaria viridis; [2]): 20%

SMILES: Cc1nn(C)c(O)c1C(=O)c1ccc(C(F)(F)F)cc1S(C)(=O)=O [(C61) pyrasulfutole, pyrasulfutole]
- Damage to crop plants (%) wheat (GA-tolerant) (wheat (GA-tolerant); in vivo): 0%
- Herbicidal efficacy (%) Matricaria chamomilla (Matricaria chamomilla): 50%

SMILES: N#Cc1cc(Br)c(O)c(Br)c1 [(C7) bromoxynil, bromoxynil]
- Damage to crop plants (%) wheat (GA-tolerant) (wheat (GA-tolerant); [3]): 0%
- Herbicidal efficacy (%) Viola arvensis (Viola arvensis): 20%

SMILES: CCc1cc(C)cc(CC)c1-c1c(OC(=O)C(C)(C)C)n2n(c1=O)CCOCC2 [(C58) pinoxaden, pinoxaden]
- Damage to crop plants (%) wheat (GA-tolerant) (wheat (GA-tolerant); [4]): 0%
- Herbicidal efficacy (%) Matricaria chamomilla (Matricaria chamomilla): 0%

SMILES: CP(=O)(O)CCC(N)C(=O)O (stereo not drawn) [(A1.1) GA, glufosinate-ammonium]
- Damage to crop plants (%) wheat (GA-tolerant) (wheat (GA-tolerant); [4]): 10%
- Damage to crop plants (%) wheat (GA-tolerant) (wheat (GA-tolerant); [3]): 10%
- Damage to crop plants (%) wheat (GA-tolerant) (wheat (GA-tolerant); [5]): 10%
- Damage to crop plants (%) wheat (GA-tolerant) (wheat (GA-tolerant); [6]): 10%
- Damage to crop plants (%) wheat (GA-tolerant) (wheat (GA-tolerant); [7]): 10%
- Herbicidal efficacy (%) Matricaria chamomilla (Matricaria chamomilla): 50%
- Herbicidal efficacy (%) Lolium multiflorum (Lolium multiflorum): 15%
- Herbicidal efficacy (%) Viola arvensis (Viola arvensis): 50%
- Herbicidal efficacy (%) Brassica napus [1]: 15%
- Herbicidal efficacy (%) Setaria viridis (Setaria viridis; g of ai/ha: A1.1 100, C28 50, C40 1, C43 100, C13 50, mixtures (100 + 5) + partner rate): 90%

SMILES: COc1cc(OC)nc(NC(=O)NS(=O)(=O)N(C)S(C)(=O)=O)n1 [(C5) amidosulfuron, amidosulfuron]
- Damage to crop plants (%) wheat (GA-tolerant) (wheat (GA-tolerant); in vivo): 0%
- Herbicidal efficacy (%) Matricaria chamomilla (Matricaria chamomilla): 45%

SMILES: CCOC(=O)C1=NN(c2ccc(Cl)cc2Cl)C(C)(C(=O)OCC)C1 (stereo not drawn) [(C4) mefenpyr-di-et, mefenpyr(-diethyl)]
- Damage to crop plants (%) wheat (GA-tolerant) (wheat (GA-tolerant); [7]): 0%
- Herbicidal efficacy (%) Lolium multiflorum (Lolium multiflorum): 0%

SMILES: COc1nc(C)nc(=NC(=O)NS(=O)(=O)c2ccccc2C(=O)O)[nH]1 [(C74) metsulfuron, metsulfuron]
- Damage to crop plants (%) wheat (GA-tolerant) (wheat (GA-tolerant); [4]): 0%

SMILES: Cc1cc(Cl)ccc1OCC(=O)O [(C43) MCPA, MCPA]
- Damage to crop plants (%) wheat (GA-tolerant) (wheat (GA-tolerant); [3]): 0%
- Damage to crop plants (%) wheat (GA-tolerant) (wheat (GA-tolerant); [6]): 0%
- Herbicidal efficacy (%) Viola arvensis (Viola arvensis): 10%
- Herbicidal efficacy (%) Setaria viridis (Setaria viridis; [2]): 0%

SMILES: CCOC(=O)[C@@H](C)Oc1ccc(Oc2nc3ccc(Cl)cc3o2)cc1 [(C24) fenoxaprop-p-et., fenoxaprop-P-ethyl]
- Damage to crop plants (%) wheat (GA-tolerant) (wheat (GA-tolerant); [4]): 0%
- Herbicidal efficacy (%) Matricaria chamomilla (Matricaria chamomilla): 0%

SMILES: COc1cnc(OC)n2nc(NS(=O)(=O)c3c(OCC(F)F)cccc3C(F)(F)F)nc12 [(C57) penoxulam, penoxsulam]
- Damage to crop plants (%) wheat (GA-tolerant) (wheat (GA-tolerant); in vivo): 0%
- Herbicidal efficacy (%) Viola arvensis (Viola arvensis): 5%

SMILES: COc1ncc(F)c2nc(S(=O)(=O)Nc3c(F)cccc3F)nn12 [(C25) florasulam, florasulam]
- Damage to crop plants (%) wheat (GA-tolerant) (wheat (GA-tolerant); [3]): 0%
- Herbicidal efficacy (%) Viola arvensis (Viola arvensis): 20%

SMILES: CCOC(=O)C(Cl)Cc1cc(-n2nc(C)n(C(F)F)c2=O)c(F)cc1Cl (stereo not drawn) [(C9) carfentrazone, carfentrazone-ethyl]
- Damage to crop plants (%) wheat (GA-tolerant) (wheat (GA-tolerant); [4]): 10%
- Herbicidal efficacy (%) Matricaria chamomilla (Matricaria chamomilla): 0%

SMILES: COC(=O)c1nc(-c2ccc(Cl)c(OC)c2F)cc(N)c1Cl [(B1.1), methyl 4-amino-3-chloro-6-(4-chloro-2-fluoro-3-methoxyphenyl)pyridine-2-carboxylate]
- Damage to crop plants (%) wheat (GA-tolerant) (wheat (GA-tolerant); in vivo): 0%
- Herbicidal efficacy (%) Matricaria chamomilla (Matricaria chamomilla): 20%
- Herbicidal efficacy (%) Lolium multiflorum (Lolium multiflorum): 0%
- Herbicidal efficacy (%) Viola arvensis (Viola arvensis): 50%
- Herbicidal efficacy (%) Brassica napus [1]: 60%

SMILES: COc1cc(OC)n2nc(NS(=O)(=O)c3c(C(F)(F)F)ccnc3OC)nc2n1 [(C62) pyroxulam, pyroxsulam]
- Damage to crop plants (%) wheat (GA-tolerant) (wheat (GA-tolerant); in vivo): 10%
- Herbicidal efficacy (%) Lolium multiflorum (Lolium multiflorum): 40%

SMILES: O=C(O)COc1ccc(Cl)cc1Cl [(C13) 2,4-D, 2,4-D]
- Damage to crop plants (%) wheat (GA-tolerant) (wheat (GA-tolerant); [6]): 0%
- Herbicidal efficacy (%) Setaria viridis (Setaria viridis; [2]): 0%

SMILES: COc1nc(C)nc(N(C)C(=O)NS(=O)(=O)c2ccccc2C(=O)O)n1 [(C71) tribenuron, tribenuron]
- Damage to crop plants (%) wheat (GA-tolerant) (wheat (GA-tolerant); [4]): 0%
- Herbicidal efficacy (%) Matricaria chamomilla (Matricaria chamomilla): 0%

SMILES: O=C(Nc1ccc(F)cc1F)c1cccnc1Oc1cccc(C(F)(F)F)c1 [(C18) diflufenican, diflufenican]
- Damage to crop plants (%) wheat (GA-tolerant) (wheat (GA-tolerant); [5]): 10%
- Herbicidal efficacy (%) Brassica napus [1]: 30%

SMILES: CC(C)c1ccc(NC(=O)N(C)C)cc1 [(C42) isoproturon, isoproturon]
- Damage to crop plants (%) wheat (GA-tolerant) (wheat (GA-tolerant); in vivo): 0%
- Herbicidal efficacy (%) Matricaria chamomilla (Matricaria chamomilla): 15%

SMILES: COC(=O)c1ccc(CNS(C)(=O)=O)cc1S(=O)(=O)NC(=O)Nc1nc(OC)cc(OC)n1 [(C52) mesosulfuron-me, mesosulfuron-methyl]
- Damage to crop plants (%) wheat (GA-tolerant) (wheat (GA-tolerant); in vivo): 0%
- Herbicidal efficacy (%) Viola arvensis (Viola arvensis): 0%

SMILES: CCCOc1nn(C(=O)[N-]S(=O)(=O)c2ccccc2C(=O)OC)c(=O)n1C.[Na+] [(C60) propoxycarbazone-Na, propoxycarbazone-sodium]
- Damage to crop plants (%) wheat (GA-tolerant) (wheat (GA-tolerant); [4]): 10%
- Herbicidal efficacy (%) Matricaria chamomilla (Matricaria chamomilla): 10%

SMILES: COC(=O)c1ccc(I)cc1S(=O)(=O)[N-]C(=O)Nc1nc(C)nc(OC)n1.[Na+] [(C40) iodosulfuron-me-Na, iodosulfuron-methyl-sodium]
- Damage to crop plants (%) wheat (GA-tolerant) (wheat (GA-tolerant); [6]): 0%
- Herbicidal efficacy (%) Setaria viridis (Setaria viridis; [2]): 10%

SMILES: COC(=O)c1csc(C)c1S(=O)(=O)NC(=O)n1nc(OC)n(C)c1=O [(C66) thiencarbazone-me, thiencarbazone-methyl]
- Damage to crop plants (%) wheat (GA-tolerant) (wheat (GA-tolerant); in vivo): 5%
- Herbicidal efficacy (%) Matricaria chamomilla (Matricaria chamomilla): 10%

SMILES: C#CCOC(=O)[C@@H](C)Oc1ccc(Oc2ncc(Cl)cc2F)cc1 [(C12) clodinafop, clodinafop-propargyl]
- Damage to crop plants (%) wheat (GA-tolerant) (wheat (GA-tolerant); in vivo): 0%
- Herbicidal efficacy (%) Brassica napus [1]: 0%

SMILES: COCc1cnc(C2=NC(C)(C(C)C)C(=O)N2)c(C(=O)O)c1 (stereo not drawn) [(C37) imazamox, imazamox]
- Damage to crop plants (%) wheat (GA-tolerant) (wheat (GA-tolerant); [4]): 15%
- Herbicidal efficacy (%) Matricaria chamomilla (Matricaria chamomilla): 0%

SMILES: CNC1=C(c2cccc(C(F)(F)F)c2)C(=O)C(c2ccccc2)O1 (stereo not drawn) [(C32) flurtamone, flurtamone]
- Damage to crop plants (%) wheat (GA-tolerant) (wheat (GA-tolerant); [4]): 15%
- Herbicidal efficacy (%) Matricaria chamomilla (Matricaria chamomilla): 25%
